Measurements published in patent publication US9776972B2, “Pyrazole derivatives as arginine methyltransferase inhibitors and uses thereof” (priority 2013, dated 2017).

Columns and labels:
human PRMT8 = human PRMT8 (Homo sapiens, UniProt Q9NR22); assay: PRMT8 Biochemical Assay (3H-SAM Flashplate, peptide substrate); details: single experiment or average of multiple experiments
Procedure, shortened: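 E. coli-expressed human PRMT8 (GST removed) was preincubated with compound for 30 min at room temperature in 20 mM Bicine pH 7.6 with TCEP, BSG and Tween 20. 3H-SAM and a biotinylated H4 31-45 peptide were then added, and the reaction was stopped with cold SAM. Labelled peptide was captured on streptavidin Flashplates; % inhibition was calculated against DMSO and SAH controls and fitted to a 3- or 4-parameter curve.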

human PRMT1 = target: T1, human PRMT1 (Homo sapiens, UniProt Q99873); assay: PRMT1 Biochemical Assay (3H-SAM Flashplate, peptide substrate); details: single experiment or average of multiple experiments
T1 construct: GST-tagged PRMT1; made in house; host or cells: High Five insect cells (baculovirus)
Procedure, shortened: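 GST-tagged PRMT1 from baculovirus-infected cells, preincubated with compounds 30 min at room temperature in 20 mM Bicine pH 7.6, 1 mM TCEP, 0.005% BSG, 0.002% Tween 20. Reaction started with ³H-SAM plus biotinylated peptide, stopped with 300 µM cold SAM.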

Sequence of human PRMT8 (Q9NR22 whole entry): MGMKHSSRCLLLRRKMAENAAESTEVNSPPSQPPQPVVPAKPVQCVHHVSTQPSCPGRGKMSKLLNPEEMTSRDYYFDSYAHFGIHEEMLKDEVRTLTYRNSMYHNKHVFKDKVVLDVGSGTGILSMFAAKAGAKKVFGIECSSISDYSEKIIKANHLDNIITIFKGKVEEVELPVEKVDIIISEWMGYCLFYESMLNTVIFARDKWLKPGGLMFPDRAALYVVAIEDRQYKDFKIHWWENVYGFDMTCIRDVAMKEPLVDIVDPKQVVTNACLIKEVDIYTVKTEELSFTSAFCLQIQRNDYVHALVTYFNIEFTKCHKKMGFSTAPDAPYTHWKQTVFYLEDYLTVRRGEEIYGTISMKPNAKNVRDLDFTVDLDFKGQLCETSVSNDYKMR
T1 sequence (Q99873 with tags, fused parts or gaps): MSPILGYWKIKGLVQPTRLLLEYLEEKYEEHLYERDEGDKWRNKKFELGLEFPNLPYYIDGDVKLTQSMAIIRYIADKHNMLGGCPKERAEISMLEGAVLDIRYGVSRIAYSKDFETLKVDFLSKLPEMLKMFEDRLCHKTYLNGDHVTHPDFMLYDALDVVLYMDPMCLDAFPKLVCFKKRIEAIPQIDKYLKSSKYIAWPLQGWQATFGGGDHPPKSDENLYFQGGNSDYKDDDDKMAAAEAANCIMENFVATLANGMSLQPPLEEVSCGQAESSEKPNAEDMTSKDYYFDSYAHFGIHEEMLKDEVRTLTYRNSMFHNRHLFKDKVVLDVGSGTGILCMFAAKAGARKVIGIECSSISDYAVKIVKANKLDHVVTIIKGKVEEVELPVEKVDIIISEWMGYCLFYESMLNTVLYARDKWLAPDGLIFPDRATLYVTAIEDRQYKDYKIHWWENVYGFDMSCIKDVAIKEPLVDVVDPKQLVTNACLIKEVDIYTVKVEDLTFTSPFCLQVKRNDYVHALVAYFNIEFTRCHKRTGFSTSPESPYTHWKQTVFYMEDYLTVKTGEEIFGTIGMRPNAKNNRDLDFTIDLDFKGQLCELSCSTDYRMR

Structure (SMILES)	IC50 (human PRMT8)	IC50 (human PRMT1)
CN(CCN)Cc1c[nH]nc1-c1ccc(Oc2ccc(F)cc2)cc1 [Compound 225, N^1-((3-(4-(4-fluorophenoxy)phenyl)-1H-pyrazol-4-yl)methyl)-N^1-methylethane-1,2-diamine]	35.8 nM	3.19 nM
CN(CCN)Cc1c[nH]nc1-c1ccc(Oc2ccccc2)c(C(=O)N(C)C)c1 [Compound 226]	7250 nM	26.8 nM
CNC(=O)c1cc(-c2n[nH]cc2CN(C)CCN)ccc1Oc1ccccc1 [Compound 227]	660 nM	24.3 nM
CNCCN(C)Cc1c[nH]nc1-c1ccc(OCCCOC)c(Cl)c1 [Compound 228]	316 nM	5.55 nM
